Laboratory results taken from article PMC9872666, “Pharmacological Profiling of a Brugia malayi Muscarinic Acetylcholine Receptor as a Putative Antiparasitic Target” (Antimicrobial Agents and Chemotherapy, 2023).

Target: T1, Bma-GAR-3 (Brugia malayi, UniProt A0A4E9FL79)
T1 construct: full-length synthesized ORF; transgenic C. elegans gar-3(gk305) knockout, expressed in ASH neuron (sra-6p), body wall muscle (myo-3p) or pharynx (myo-2p)
Assay: ring aversion assay, transgenic C. elegans expressing receptor in ASH neuron
Conditions: agonist; 100 mM in plate ring; whole transgenic worms, gar-3(gk305) knockout background; N2 and knockout as controls; also pharyngeal pumping and dye-uptake assays

T1 sequence (A0A4E9FL79 entry or part of it): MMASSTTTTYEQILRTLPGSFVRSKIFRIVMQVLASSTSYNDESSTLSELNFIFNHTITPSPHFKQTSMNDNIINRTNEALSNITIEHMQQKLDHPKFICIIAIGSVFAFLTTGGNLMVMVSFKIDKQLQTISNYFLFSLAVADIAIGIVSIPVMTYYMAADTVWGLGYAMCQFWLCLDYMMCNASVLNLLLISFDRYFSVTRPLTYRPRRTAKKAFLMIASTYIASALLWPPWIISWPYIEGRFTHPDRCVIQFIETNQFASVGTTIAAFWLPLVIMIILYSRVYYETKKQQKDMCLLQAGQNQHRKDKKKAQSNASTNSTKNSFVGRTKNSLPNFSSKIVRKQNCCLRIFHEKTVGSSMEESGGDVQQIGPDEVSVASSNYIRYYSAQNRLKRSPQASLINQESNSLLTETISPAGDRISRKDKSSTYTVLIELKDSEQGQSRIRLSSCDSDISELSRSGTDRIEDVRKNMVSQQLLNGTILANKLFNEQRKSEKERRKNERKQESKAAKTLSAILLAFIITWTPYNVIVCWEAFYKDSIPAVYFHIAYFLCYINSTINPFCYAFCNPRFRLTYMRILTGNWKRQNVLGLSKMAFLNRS

With `C[N+](C)(C)CC#CCN1CCCC1=O` [OXO, oxotremorine M] the “ring aversion assay, transgenic C. elegans expressing receptor in ASH neuron” value was “this receptor is activated by acetylcholine and oxotremorine M”.
